Measurements taken from patent publication US11377452B2, “Glutamate transporter activators and methods using same” (DREXEL UNIVERSITY, priority 2017, dated 2022).

What was measured:
cultured astrocytes = assay: Glutamate uptake in cultured astrocytes; assay type: cell-based, rat
Method: Glia was prepared and cultured according to Shimizu, et al., 2011, J. Visualized Exp. e3257 with modifications. Briefly, cerebral cortices from 2-4 day old Holtzman rat pups were dissected under sterile conditions and placed in 60 mm dishes containing dissection medium (in mM: 16 glucose, 22 sucrose, 135 NaCl, 5 KCl, 1 Na2HPO4, 0.22 KH2PO4, 10 HEPES, pH 7.4, Osmolarity 310+10 mOsm). Tissue was minced with curved scissors and digested in 0.25% trypsin for 15 min. Trypsin activity was ended by transferring tissue pieces to another vial with dissection medium. Tissue was then repeatedly passed through a serological plastic pipette until it was dissociated by trituration in the presence of 60 μg/mL DNase. Cells were pelleted by centrifugation for 15 min at 280 g and resuspended in glia plating medium (90% DMEM, 10% FBS, and 50 μg/mL gentamicin) and transferred to culture flasks kept in a 37° C. incubator (5-10% CO2). After growth for 10 days in vitro (DIV), cells were detached with 0.05% trypsin, centrifuged, and plated at a density of 10 000 cells/well in polylysine-coated 96-well plates. Plates were grown for 14 DIV before uptake assays were performed.
Assays were performed as described (Timple, et al., 2013, J. Nat. Prod. 76:1889-1895). Briefly, using an Elx50 Biotek plate washer (Winooski, Vt., USA), cells were washed in PBS-CM buffer. For dose-response assays, vehicle and several concentrations of the compounds (0.01 nM to 1 μM) were added and incubated for 10 min at 37° C. Uptake assays were initiated by addition of 50 nM L-[^3H]-glutamate, and incubation was carried on for 10 min at room temperature. Nonspecific uptake was obtained in the presence of 10 μM DL-TBOA.
Reactions were finished by washing the plates twice with PBS-CM and the addition of 100 μL of scintillation fluid to each well. Radioactivity was counted in a microplate scintillation and luminescence counter (Wallac, Shelton, Conn., USA).

NMDA receptors = assay: NMDA-induced calcium response, calcium imaging in cultured cortical neurons; assay type: cell-based, mouse; settings: 100 μM NMDA with 3 μM glycine, no Mg2+; AP-V at 40 μM
Method: To determine whether the compounds have effects on the function of NMDA receptors, calcium imaging recordings from cultured cortical neurons were performed as described previously (Nicolai, et al., 2010, Cell Death Dis. 1:e33).
Primary cortical neurons were obtained from the cerebral cortex of neonatal (P1 or P2) C57BL/6 mice, plated at a density of 3000 cells/12 mm round coverslip, and cultured in medium containing Neurobasal A, fetal calf serum (2%), heat-inactivated horse serum (2%), L-glutamax-1 (0.2 mM), and B-27 supplement (2%). Cells were maintained at 37° C. in a humidified atmosphere containing 5% CO2. The calcium imaging experiments were conducted on DIV 1.
Recordings were performed in living neurons, as described (Xia, et al., 2014, J. Physiol. 592:3443-3461). Briefly, cultured neurons were loaded with a Fura-2 calcium dye in Tyrode's solution containing (in mM) 140 NaCl, 5 KCl, 2 CaCl2, 1 MgCl2, 10 HEPES, and 5.6 glucose. Coverslips were mounted in the imaging chamber (model RC-25, Warner Instruments, Hamden, Conn.) and continuously perfused with Tyrode's solution containing 0.5 μM tetrodotoxin. Images were acquired in 3 s intervals at room temperature (20-22° C.) using an Olympus inverted microscope equipped with a CCD camera (Hamamatsu ORCA-03G, Japan). The fluorescence ratio was determined as the fluorescence intensities excited at 340 and 380 nm with background subtracted. 100 μM NMDA was applied in the presence of 3 μM glycine and in the absence of Mg^2+. The NMDA receptor antagonist AP-V (40 μM) was applied to certify that the result was specifically the NMDA-induced calcium response. Vehicle, GT949, or GT951 was applied, and calcium changes were recorded.
Recordings were performed in living neurons, as described (Xia, et al., 2014, J. Physiol. 592:3443-3461). Briefly, cultured neurons were loaded with Fura-2 calcium dye in Hank's balanced salt solution (HBSS). 100 μM NMDA was applied in the presence of 3 μM glycine and in the absence of Mg^2+. […] Vehicle, GT949, or GT951 was applied, and calcium currents were recorded.

EAAT1 = biological target: T1, EAAT1 (Homo sapiens, UniProt P43003); assay: Dose-response glutamate uptake in COS-7 cells transfected with EAAT1; assay type: cell-based
T1 construct: expressed in transfected cells; host or cells: COS-7
Text: (§1) COS-7 cells were maintained in DMEM with 10% fetal calf serum under 5% CO2. Transfection with empty vector pCMV-5 was used to control for the level of endogenous uptake of radiolabeled substrate in each experimental condition. The specificity of the effect of the compounds was investigated in COS-7 cells transiently transfected with glutamate transporter subtypes EAAT1-3 and monoamine transporters hNET (human noradrenaline transporter), hDAT (dopamine transporter), and hSERT (serotonin transporter).
(§2) For glutamate uptake assays, subconfluent COS-7 cells were transfected with 0.5 μg of plasmid DNA per well using TransIT-LT1 transfection reagent (Mirus Bio LLC, Madison, Wis.) and plated at a density of ˜100 000 cells per well in 24-well tissue culture plates. For monoamine uptake assays, cells were transfected 0.1 μg of DNA per well as above and plated at a density of 10 000 cells per well in 96-wells plates.
[…]. […]
(§3) All reactions were carried out for 10 min; then, uptake was terminated by removal of solution, followed by two washes with PBSCM. […] Lysate was transferred to scintillation vials containing 3 mL of scintillation fluid, and radioactivity was quantified in an LS 6500 scintillation counter (Beckman Coulter, Brea, Calif.). For 96-well plates, scintillation fluid was added to each well, and the plate was counted in a Wallac M50 microbeta scintillation analyzer.

EAAT3 = biological target: T2, EAAT3 (Homo sapiens, UniProt P43005); assay: Dose-response glutamate uptake in COS-7 cells transfected with EAAT3; assay type: cell-based
T2 construct: expressed in transfected cells; host or cells: COS-7
T2 sequence (P43005 1-524): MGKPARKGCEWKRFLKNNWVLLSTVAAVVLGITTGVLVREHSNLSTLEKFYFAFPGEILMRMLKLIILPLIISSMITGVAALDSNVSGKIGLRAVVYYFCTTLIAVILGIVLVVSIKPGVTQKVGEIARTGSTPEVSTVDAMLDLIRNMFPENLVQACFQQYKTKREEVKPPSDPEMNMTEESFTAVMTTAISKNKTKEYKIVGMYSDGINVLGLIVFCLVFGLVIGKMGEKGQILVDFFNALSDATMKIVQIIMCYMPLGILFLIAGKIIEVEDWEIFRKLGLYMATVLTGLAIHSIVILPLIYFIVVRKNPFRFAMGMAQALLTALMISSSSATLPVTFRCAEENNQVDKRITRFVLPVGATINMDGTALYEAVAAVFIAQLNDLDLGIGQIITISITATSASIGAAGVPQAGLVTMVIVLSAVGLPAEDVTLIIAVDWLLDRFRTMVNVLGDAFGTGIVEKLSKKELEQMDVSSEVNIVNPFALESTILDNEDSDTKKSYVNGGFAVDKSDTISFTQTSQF
Text: as §1, §2
[…]. […]
as §3

EAAT2 [1] = biological target: T3, EAAT2 (Homo sapiens, UniProt P43004); assay: Kinetic assay of L-glutamate uptake in EAAT2-transfected COS-7 cells; assay type: cell-based; settings: GT949 and GT951 pre-incubated at 1 nM
T3 construct: expressed in transfected cells; host or cells: COS-7
Text: as §1, §2, §3

EAAT2 [2] = biological target: T3, EAAT2; assay: Dose-response glutamate uptake in COS-7 cells transfected with EAAT2; assay type: cell-based; settings: for kind of modulation of EAAT2 glutamate uptake in dose-response assays: COS-7 cells expressing EAAT2
Text: as §1, §2
Uptake reactions were initiated by the addition of 50 nM ^3H-L-glutamate, serotonin, dopamine, or noradrenaline, as appropriate.
All reactions were carried out for 10 min; then, uptake was terminated by removal of solution, followed by two washes with PBSCM. Cells in 24-well plates were lysed with 1% SDS/0.1 M NaOH. Lysate was transferred to scintillation vials containing 3 mL of scintillation fluid, and radioactivity was quantified in an LS 6500 scintillation counter (Beckman Coulter, Brea, Calif.). For 96-well plates, scintillation fluid was added to each well, and the plate was counted in a Wallac M50 microbeta scintillation analyzer.

T3 sequence (P43004 whole entry, the tested form may be a part): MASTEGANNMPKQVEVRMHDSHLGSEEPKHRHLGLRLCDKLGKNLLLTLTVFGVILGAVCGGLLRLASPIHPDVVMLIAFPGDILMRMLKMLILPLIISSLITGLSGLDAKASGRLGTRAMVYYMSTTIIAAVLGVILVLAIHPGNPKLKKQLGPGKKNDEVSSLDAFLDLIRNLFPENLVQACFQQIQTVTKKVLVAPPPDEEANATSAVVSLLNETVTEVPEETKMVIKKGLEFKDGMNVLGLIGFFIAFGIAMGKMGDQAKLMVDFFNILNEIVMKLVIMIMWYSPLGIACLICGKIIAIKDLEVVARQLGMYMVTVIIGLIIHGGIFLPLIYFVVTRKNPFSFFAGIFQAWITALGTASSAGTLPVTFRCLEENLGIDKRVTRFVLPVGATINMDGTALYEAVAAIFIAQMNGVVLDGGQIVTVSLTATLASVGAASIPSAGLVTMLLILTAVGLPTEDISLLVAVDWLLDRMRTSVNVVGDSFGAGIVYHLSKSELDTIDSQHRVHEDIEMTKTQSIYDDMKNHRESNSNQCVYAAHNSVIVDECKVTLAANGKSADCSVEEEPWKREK
T1 sequence (P43003 whole entry): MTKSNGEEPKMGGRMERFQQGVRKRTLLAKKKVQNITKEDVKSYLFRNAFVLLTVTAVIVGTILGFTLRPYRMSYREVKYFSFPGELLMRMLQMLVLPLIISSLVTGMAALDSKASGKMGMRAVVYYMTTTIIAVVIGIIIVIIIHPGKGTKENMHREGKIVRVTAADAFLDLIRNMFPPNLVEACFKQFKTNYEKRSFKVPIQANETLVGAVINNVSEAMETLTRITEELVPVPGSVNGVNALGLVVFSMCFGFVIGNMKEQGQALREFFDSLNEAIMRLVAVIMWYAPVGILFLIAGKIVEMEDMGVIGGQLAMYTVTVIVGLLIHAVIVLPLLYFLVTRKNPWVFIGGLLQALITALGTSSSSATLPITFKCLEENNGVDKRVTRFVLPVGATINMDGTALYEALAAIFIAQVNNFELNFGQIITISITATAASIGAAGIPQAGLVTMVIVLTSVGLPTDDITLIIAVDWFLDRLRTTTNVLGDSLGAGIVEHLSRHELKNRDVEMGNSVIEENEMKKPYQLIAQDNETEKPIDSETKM

COc1ccc2[nH]c(=O)c(C(c3nnnn3CCc3ccccc3)N3CCN(c4cccc(C(F)(F)F)c4)CC3)cc2c1 (stereo not drawn) [GT951, 6-methoxy-3-((1-phenethyl-1H-tetrazol-5-yl)(4-(3-(trifluoromethyl)phenyl)piperazin-1-yl)methyl)quinolin-2(1H)-one]
EC50 (cultured astrocytes; Rattus norvegicus, Astrocyte, cultured rat astrocytes, 50 nM 3H-L-glutamate, read-out: potency (EC50) of glutamate uptake enhancement in cultured astrocytes): 300 ± 200 pM
efficacy of augmentation of glutamate transport in cultured astrocytes (cultured astrocytes; cultured rat astrocytes): ~27%
effect on NMDA-induced calcium response (NMDA receptors): no effects
effect on EAAT1-mediated glutamate transport (EAAT1): no effect
effect on EAAT3-mediated glutamate transport (EAAT3): no effect

C=CCN1CC(c2nc3ccccc3n2CCCCOc2ccc(Cl)c(C)c2)CC1=O (stereo not drawn) [GT939, 1-allyl-4-(1-(4-(4-chloro-3-methylphenoxy)butyl)-1H-benzo[d]imidazol-2-yl)pyrrolidin-2-one]
effect on Vmax of transport (EAAT2 [1]): increased Vmax
kind of modulation of EAAT2 glutamate uptake in dose-response assays (EAAT2 [2]): PAMs
EC50 (EAAT2 [2]; COS-7 cells transfected with EAAT2, compound 10 min 37 °C, 50 nM 3H-L-glutamate, mean±SEM, read-out: EC50 (ED50) of enhancement of EAAT2-mediated glutamate transport): 700 ± 200 pM
effect on NMDA-induced calcium response (NMDA receptors): no effects
effect on EAAT1-mediated glutamate transport (EAAT1): no effect
effect on EAAT3-mediated glutamate transport (EAAT3): no effect

C=CCN1CC(c2nc3ccccc3n2CCCOc2ccc(C(C)CC)cc2)CC1=O (stereo not drawn) [GT922, 1-allyl-4-(1-(3-(4-(sec-butyl)phenoxy)propyl)-1H-benzo[d]imidazol-2-yl)pyrrolidin-2-one]
kind of modulation of EAAT2 glutamate uptake in dose-response assays (EAAT2 [2]): inhibitors

Cc1cc(C)c2cc(C(c3nnnn3CCc3ccccc3)N3CCN(C(=O)c4ccco4)CC3)c(=O)[nH]c2c1 (stereo not drawn) [GT996, 3-((4-(furan-2-carbonyl)piperazin-1-yl)(1-phenethyl-1H-tetrazol-5-yl)methyl)-5,7-dimethylquinolin-2(1H)-one]
modulation of glutamate transport in cultured astrocytes (cultured astrocytes; cultured rat astrocytes, negative control): inactive

COc1ccc(C2C(C#N)=C(N)OC3=C2C(=O)CC(c2cccc4ccccc24)C3)cc1 (stereo not drawn) [UCPH-101, 2-Amino-5,6,7,8-tetrahydro-4-(4-methoxyphenyl)-7-(naphthalen-1-yl)-5-oxo-4H-chromene-3-carbonitrile, reference compound]
inhibition of glutamate uptake in cultured glial cells by selective EAAT inhibitors (cultured astrocytes; 50 nM 3H-L-glutamate): partial inhibition

C=CCN1CC(c2nc3ccccc3n2CCCCOc2ccc(C)c(C)c2)CC1=O (stereo not drawn) [GT938, 1-allyl-4-(1-(4-(3,4-dimethylphenoxy)butyl)-1H-benzo[d]imidazol-2-yl)pyrrolidin-2-one]
kind of modulation of EAAT2 glutamate uptake in dose-response assays (EAAT2 [2]): inhibitors

NC(CCCP(=O)(O)O)C(=O)O (racemic) [AP-V, (DL)-2-amino-5-phosphonovaleric acid, reference compound]
effect on NMDA-induced calcium response (NMDA receptors): drastically attenuated

Cc1ccc(C)c2[nH]c(=O)c(C(c3nnnn3CCc3ccccc3)N3CCN(Cc4ccc5c(c4)OCO5)CC3)cc12 (stereo not drawn) [GT867, 3-((4-(benzo[d][1,3]dioxol-5-ylmethyl)piperazin-1-yl)(1-phenethyl-1H-tetrazol-5-yl)methyl)-5,8-dimethylquinolin-2(1H)-one]
kind of modulation of EAAT2 glutamate uptake in dose-response assays (EAAT2 [2]): no effect

O=C(c1ccc(S(=O)(=O)N2CCCC2)cc1)N1CCN(c2nc(-c3ccccc3)nc3sc4c(c23)CCC4)CC1 [GT988, (4-(2-phenyl-6,7-dihydro-5H-cyclopenta [4,5]thieno[2,3-d]pyrimidin-4-yl)piperazin-1-yl)(4-(pyrrolidin-1-ylsulfonyl)phenyl) methanone]
kind of modulation of EAAT2 glutamate uptake in dose-response assays (EAAT2 [2]): no effect
